Results taken from ChEMBL document CHEMBL6127051, “Hydrazinecarboxamides: Comprehensive review of their anticancer, anticonvulsive, anti-inflammatory, enzyme inhibition, antioxidant and other activities” (Eur J Med Chem, 2024).

Experiments:
HepG2 [1] = test: Antiproliferative activity against human HepG2 cells assessed as reduction in cell viability incubated for 72 hrs by MTT assay; format: functional, cell-based; conditions: HepG2, 72 h
[2] = Antioxidant activity assessed as DPPH radical scavenging activity at 10 ug/ml; format: functional; conditions: dose 10.0 µg/ml
Cholinesterase = Cholinesterase (Equus caballus, UniProt P81908); test: Inhibition of equine serum BChE using butyrylthiocholine iodide as substrate measured after 15 mins by Ellman's method
Sequence of Cholinesterase (P81908 whole entry): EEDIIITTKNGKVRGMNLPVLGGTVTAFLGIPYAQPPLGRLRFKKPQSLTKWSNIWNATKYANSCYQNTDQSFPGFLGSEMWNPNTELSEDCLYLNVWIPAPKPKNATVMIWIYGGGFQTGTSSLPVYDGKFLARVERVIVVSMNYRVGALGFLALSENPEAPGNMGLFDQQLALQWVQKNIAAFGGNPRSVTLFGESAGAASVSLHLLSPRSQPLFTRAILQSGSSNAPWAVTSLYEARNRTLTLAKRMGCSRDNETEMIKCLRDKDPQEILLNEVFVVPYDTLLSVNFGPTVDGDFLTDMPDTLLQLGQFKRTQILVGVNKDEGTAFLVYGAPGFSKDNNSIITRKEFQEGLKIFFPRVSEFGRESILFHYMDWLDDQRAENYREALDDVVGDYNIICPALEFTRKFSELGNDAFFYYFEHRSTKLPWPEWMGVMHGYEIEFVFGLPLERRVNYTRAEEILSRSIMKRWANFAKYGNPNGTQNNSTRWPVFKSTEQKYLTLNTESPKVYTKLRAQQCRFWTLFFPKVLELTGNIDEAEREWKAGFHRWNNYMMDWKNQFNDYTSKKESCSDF

[3] = Inhibition of Escherichia coli beta-glucuronidase
Mus musculus [4] = test: Anticonvulsant activity in ip dosed MES induced Kunming mouse seizure model; format: functional
MCF7 [5] = test: Cytotoxicity against human MCF7 cells assessed as reduction in cell growth; format: functional, cell-based
A549 [6] = test: Antiproliferative activity against human A549 cells; format: functional, cell-based
MCF7 [7] = test: Antiproliferative activity against human MCF7 cells assessed as reduction in cell viability incubated for 72 hrs by MTT assay; format: functional, cell-based; conditions: MCF7, 72 h
A549 [8] = test: Antiproliferative activity against human A549 cells assessed as reduction in cell viability by MTT assay; format: functional, cell-based
MCF7 [9] = test: Anticancer activity against human MCF7 cells assessed as reduction in cell growth measured after 3 days by MTT assay; format: functional, cell-based; conditions: MCF7, 72 h
[10] = target: T1, Retinoic acid receptor RXR-alpha (Homo sapiens, UniProt P19793); test: Antagonist activity at RXRalpha (unknown origin) by Alpha Screen assay
T1 sequence (P19793 whole entry): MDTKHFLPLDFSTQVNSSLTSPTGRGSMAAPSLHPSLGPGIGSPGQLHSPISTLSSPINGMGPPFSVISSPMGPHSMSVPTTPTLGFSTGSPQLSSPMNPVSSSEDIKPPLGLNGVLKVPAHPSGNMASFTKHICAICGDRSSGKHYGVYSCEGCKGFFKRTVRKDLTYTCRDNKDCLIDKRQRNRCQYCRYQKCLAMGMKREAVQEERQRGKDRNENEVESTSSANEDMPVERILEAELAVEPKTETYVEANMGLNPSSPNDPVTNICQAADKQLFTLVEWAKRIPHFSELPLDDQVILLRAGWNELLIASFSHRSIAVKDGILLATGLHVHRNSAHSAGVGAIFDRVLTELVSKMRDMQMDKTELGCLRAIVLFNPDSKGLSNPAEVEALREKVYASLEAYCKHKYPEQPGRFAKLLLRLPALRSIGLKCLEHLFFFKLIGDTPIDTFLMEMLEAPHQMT

A549 [11] = test: Antiproliferative activity against human A549 cells assessed as reduction in cell viability measured for 24 hrs by MTT assay; conditions: A549, 24 h
HepG2 [12] = test: Antiproliferative activity against human HepG2 cells assessed as reduction in cell viability measured for 24 hrs by MTT assay; conditions: HepG2, 24 h
[13] = Antioxidant activity assessed as ABTS radical scavenging activity after 30 mins by spectrophotometric analysis; format: functional
A549 [14] = test: Antiproliferative activity against human A549 cells assessed as reduction in cell viability incubated for 72 hrs by MTT assay; format: functional, cell-based; conditions: A549, 72 h
WI-38 = test: Antiproliferative activity against human WI-38 cells assessed as reduction in cell viability; format: functional, cell-based
NCI-H23 = test: Antiproliferative activity against human NCI-H23 cells assessed as reduction in cell viability incubated for 72 hrs by MTT assay; format: functional, cell-based; conditions: NCI-H23, 72 h
Mus musculus [15] = test: Anticonvulsant activity in ip dosed scPTZ induced Kunming mouse seizure model; format: functional
MCF7 [16] = test: Antiproliferative activity against human MCF7 cells assessed as reduction in cell viability measured for 72 hrs by MTT assay; format: functional, cell-based; conditions: MCF7, 72 h

## Cc1ccc(S(=O)(=O)NC(=O)NNC(=O)Cn2c(C(C)C)nc3ccccc32)cc1
HepG2 [1]
  IC50: 80.7 µM

## COc1ccc(/C=C2\N=C(C)N(NC(=O)N3c4ccccc4C=Cc4ccccc43)C2=O)cc1
[2]
  Activity: 73.9%

## CCCCCCCCCCCCCNC(=O)NNC(=O)c1cccc(Br)c1
Cholinesterase
  IC50: 22 µM

## CCCCCCCCCCCCCCCNC(=O)NNC(=O)c1ccc(C(F)(F)F)cc1
Cholinesterase
  IC50: 58 µM

## COc1ccc(NC(=O)NNC(=O)CCc2ccccc2OC)cc1
[3]
  IC50: 15.5 µM

## COc1cc(C(=O)NN2C(=O)C(=O)N(Cc3ccccc3)C2=O)cc2c1OCCO2
Mus musculus [4]
  ED50: 13.7 mg/kg

## O=C(NNC(=O)n1nnc2ccccc21)NC1CCCCC1
MCF7 [5]
  IC50: 79 µM

## COc1cc(NC(C)CCCNC(=O)NNC(=O)NOC(=O)c2ccccc2)c2ncccc2c1 (stereo unspecified)
A549 [6]
  IC50: 1500 nM
MCF7 [7]
  IC50: 1000 nM
A549 [8]
  IC50: 4 µM

## COc1cc(NC(C)CCCNC(=O)NNC(=O)/C=C/c2cc(OC)c(OC)c(OC)c2)c2ncccc2c1 (stereo unspecified)
MCF7 [9]
  IC50: 30 nM

## COc1cc(NC(C)CCCNC(=O)NNC(=O)/C=C/c2ccccc2F)c2ncccc2c1 (stereo unspecified)
MCF7 [9]
  IC50: 30 nM

## COc1cc(C(=O)NN2C(=O)C(=O)N(C(C)C)C2=O)cc2c1OCCO2
Mus musculus [4]
  ED50: 7.6 mg/kg

## O=C(NNC(=O)n1nnc2ccccc21)NOC(=O)c1ccccc1
MCF7 [5]
  IC50: 79 µM

## COc1cc(NC(C)CCCNC(=O)NNC(=O)/C=C/c2ccccc2)c2ncccc2c1 (stereo unspecified)
MCF7 [9]
  IC50: 30 nM

## O=C(NNC(=S)NCc1ccccc1)c1ccc(Nc2nccc(-c3ccccn3)n2)cc1
[10]
  EC50: 1050 nM
A549 [11]
  IC50: 8.39 µM
HepG2 [12]
  IC50: 2170 nM

## COc1ccc(/C=C/C(=O)NNC(=O)NCCCC(C)Nc2cc(OC)cc3cccnc23)cc1 (stereo unspecified)
MCF7 [9]
  IC50: 30 nM

## CC1=N/C(=C\c2ccc([N+](=O)[O-])cc2)C(=O)N1NC(=O)N1c2ccccc2C=Cc2ccccc21
[2]
  Activity: 73.9%

## COc1cc(NC(C)CCCNC(=O)NNC(=O)NC(=O)c2ccccc2)c2ncccc2c1 (stereo unspecified)
A549 [6]
  IC50: 1500 nM
MCF7 [7]
  IC50: 1000 nM
A549 [8]
  IC50: 4 µM

## O=C(Cn1c(Cc2ccccc2)nc2ccccc21)NNC(=O)Nc1ccccc1
[13]
  Activity: 126%

## CCCCNC(=O)NNC(=O)c1ccc(Nc2nccc(-c3ccncc3)n2)cc1
[10]
  EC50: 1050 nM
A549 [11]
  IC50: 8.39 µM
HepG2 [12]
  IC50: 2170 nM

## COc1cc(NC(C)CCCNC(=O)NNC(=O)/C=C/c2ccc(OC)c(OC)c2)c2ncccc2c1 (stereo unspecified)
MCF7 [9]
  IC50: 30 nM

## COc1ccc(/C=C2\N=C(C)N(NC(=O)N3c4ccccc4C=Cc4ccccc43)C2=O)c(OC)c1
[2]
  Activity: 73.9%

## COc1cc(NC(C)CCCNC(=O)NNC(=O)NCCc2ccccc2)c2ncccc2c1 (stereo unspecified)
A549 [6]
  IC50: 1500 nM
MCF7 [7]
  IC50: 1000 nM
A549 [8]
  IC50: 4 µM

## CC(C)N1C(=O)C(=O)N(NCC(=O)N(c2ccccc2)C2(C(N)=O)CCCC2)C1=O
Mus musculus [4]
  ED50: 34.4 mg/kg

## COc1cc(NC(C)CCCNC(=O)NNC(=O)/C=C/c2ccc(Cl)cc2)c2ncccc2c1 (stereo unspecified)
MCF7 [9]
  IC50: 30 nM

## COc1cccc(NC(=O)NNC(=O)c2oc3ccccc3c2CN2CCOCC2)c1
A549 [14]
  IC50: 1500 nM
WI-38
  IC50: 12.9 µM
NCI-H23
  IC50: 1490 nM

## COc1cc(NC(C)CCCNC(=O)NNC(=O)/C=C/c2ccc3c(c2)OCO3)c2ncccc2c1 (stereo unspecified)
MCF7 [9]
  IC50: 30 nM

## CCOC(=O)C1(NC(=O)NNc2ccc(F)c(Cl)c2)CC1(C)C (stereo unspecified)
Mus musculus [15]
  ED50: 58.1 mg/kg

## COc1cc(/C=C2\N=C(C)N(NC(=O)N3c4ccccc4C=Cc4ccccc43)C2=O)ccc1O
[2]
  Activity: 73.9%

## COc1cc(NC(C)CCCNC(=O)NNC(=O)NC2CCCCC2)c2ncccc2c1 (stereo unspecified)
A549 [6]
  IC50: 1500 nM
MCF7 [7]
  IC50: 1000 nM
A549 [8]
  IC50: 4 µM

## CNC(=O)c1cc(Oc2ccc(NC(=O)Nc3ccc(Cl)c(C(F)(F)F)c3)cc2)ccn1 [SORAFENIB]
HepG2 [12]
  IC50: 16900 nM

## O=C(NNC(=O)n1nnc2ccccc21)NC(=O)c1ccccc1
MCF7 [5]
  IC50: 79 µM

## O=C(NNC(=O)c1cc2ccccc2[nH]1)Nc1ccc(Cl)c(C(F)(F)F)c1
MCF7 [16]
  IC50: 1200 nM
